{"source": "patent US20220281848A1", "about": "“PYRAZOLE-SUBSTITUTED PYRROLIDINONES AS HERBICIDES” (FMC Corporation, priority 2019, published 2022)", "test_system": "plants", "test": "Test D pre-emergence, other plants of Tables D1 and D3", "assay_type": "in vivo", "settings": "pre-emergence, 100=total damage, 0=no damage", "protocol": "A formulation containing 50 g/L of the test chemical was prepared by dissolving the active ingredient in a mixture of organic solvents and emulsifier, details of which are provided in the table. This formulation was then mixed with a small, variable amount of acetone to aid dissolution, before addition of a 0.2% v/v aqueous solution of an adjuvant, as the aqueous diluent, to form an aqueous spray solution which contains a predetermined concentration of the active ingredient.\nThis aqueous spray solution was then sprayed onto plants including maize and wheat that had been seed treated with a herbicide safener, after one day's cultivation (for pre-emergence) or after about 12 days' cultivation (for post-emergence). The plants were grown from seeds sown in standard soil, placed in a glasshouse under controlled conditions (at 24/18° C. or 20/16° C., day/night; 16 h light; 65% humidity). After spray application the plants were then grown in a glasshouse under the same conditions and watered twice daily. After 15 d for post-emergence and 20 DAA for pre-emergence the test was evaluated (100=total damage to plant; 0=no damage to plant)."}
{"smiles": "CN1CC(c2cc(C(F)(F)F)n(C)n2)C(C(=O)Nc2ccc(F)cc2F)C1=O", "note": "(racemic) [Compound 6]", "values": [{"measurement": "damage to plant, ALOMY", "setting": "rate 15, 20 DAA", "value": 0}, {"measurement": "damage to plant, AVEFA", "setting": "rate 15, 20 DAA", "value": 0}, {"measurement": "damage to plant, BEAVA", "setting": "rate 15, 20 DAA", "value": 0}, {"measurement": "damage to plant, BROTE", "setting": "rate 15, 20 DAA", "value": 0}, {"measurement": "damage to plant, BRSNN", "setting": "rate 15, 20 DAA", "value": 0}, {"measurement": "damage to plant, CHEAL", "setting": "rate 15, 20 DAA", "value": 0}, {"measurement": "damage to plant, GALAP", "setting": "rate 15, 20 DAA", "value": 0}, {"measurement": "damage to plant, HORVW", "setting": "rate 15, 20 DAA", "value": 0}, {"measurement": "damage to plant, KCHSC", "setting": "rate 15, 20 DAA", "value": 0}, {"measurement": "damage to plant, LOLPE", "setting": "rate 15, 20 DAA", "value": 0}, {"measurement": "damage to plant, POAAN", "setting": "rate 15, 20 DAA", "value": 0}, {"measurement": "damage to plant, POLCO", "setting": "rate 15, 20 DAA", "value": 0}, {"measurement": "damage to plant, SINAR", "setting": "rate 15, 20 DAA", "value": 0}, {"measurement": "damage to plant, STEME", "setting": "rate 15, 20 DAA", "value": 0}, {"measurement": "damage to plant, VERPE", "setting": "rate 15, 20 DAA", "value": 0}, {"measurement": "damage to plant, ALOMY", "setting": "rate 30, 20 DAA", "value": 0}, {"measurement": "damage to plant, AVEFA", "setting": "rate 30, 20 DAA", "value": 0}, {"measurement": "damage to plant, BEAVA", "setting": "rate 30, 20 DAA", "value": 0}, {"measurement": "damage to plant, BROTE", "setting": "rate 30, 20 DAA", "value": 0}, {"measurement": "damage to plant, BRSNN", "setting": "rate 30, 20 DAA", "value": 0}, {"measurement": "damage to plant, CHEAL", "setting": "rate 30, 20 DAA", "value": 0}, {"measurement": "damage to plant, GALAP", "setting": "rate 30, 20 DAA", "value": 0}, {"measurement": "damage to plant, HORVW", "setting": "rate 30, 20 DAA", "value": 0}, {"measurement": "damage to plant, KCHSC", "setting": "rate 30, 20 DAA", "value": 0}, {"measurement": "damage to plant, LOLPE", "setting": "rate 30, 20 DAA", "value": 0}, {"measurement": "damage to plant, POAAN", "setting": "rate 30, 20 DAA", "value": 0}, {"measurement": "damage to plant, POLCO", "setting": "rate 30, 20 DAA", "value": 0}, {"measurement": "damage to plant, SINAR", "setting": "rate 30, 20 DAA", "value": 0}, {"measurement": "damage to plant, STEME", "setting": "rate 30, 20 DAA", "value": 0}, {"measurement": "damage to plant, VERPE", "setting": "rate 30, 20 DAA", "value": 0}, {"measurement": "damage to plant, ALOMY", "setting": "rate 60, 20 DAA", "value": 0}, {"measurement": "damage to plant, AVEFA", "setting": "rate 60, 20 DAA", "value": 0}, {"measurement": "damage to plant, BEAVA", "setting": "rate 60, 20 DAA", "value": 0}, {"measurement": "damage to plant, BROTE", "setting": "rate 60, 20 DAA", "value": 0}, {"measurement": "damage to plant, BRSNN", "setting": "rate 60, 20 DAA", "value": 0}, {"measurement": "damage to plant, CHEAL", "setting": "rate 60, 20 DAA", "value": 0}, {"measurement": "damage to plant, GALAP", "setting": "rate 60, 20 DAA", "value": 0}, {"measurement": "damage to plant, HORVW", "setting": "rate 60, 20 DAA", "value": 0}, {"measurement": "damage to plant, KCHSC", "setting": "rate 60, 20 DAA", "value": 0}, {"measurement": "damage to plant, LOLPE", "setting": "rate 60, 20 DAA", "value": 0}, {"measurement": "damage to plant, POAAN", "setting": "rate 60, 20 DAA", "value": 0}, {"measurement": "damage to plant, POLCO", "setting": "rate 60, 20 DAA", "value": 0}, {"measurement": "damage to plant, SINAR", "setting": "rate 60, 20 DAA", "value": 0}, {"measurement": "damage to plant, STEME", "setting": "rate 60, 20 DAA", "value": 0}, {"measurement": "damage to plant, VERPE", "setting": "rate 60, 20 DAA", "value": 0}, {"measurement": "damage to plant, ALOMY", "setting": "rate 130, 20 DAA", "value": 0}, {"measurement": "damage to plant, AVEFA", "setting": "rate 130, 20 DAA", "value": 0}, {"measurement": "damage to plant, BEAVA", "setting": "rate 130, 20 DAA", "value": 0}, {"measurement": "damage to plant, BROTE", "setting": "rate 130, 20 DAA", "value": 0}, {"measurement": "damage to plant, BRSNN", "setting": "rate 130, 20 DAA", "value": 0}, {"measurement": "damage to plant, CHEAL", "setting": "rate 130, 20 DAA", "value": 0}, {"measurement": "damage to plant, GALAP", "setting": "rate 130, 20 DAA", "value": 0}, {"measurement": "damage to plant, HORVW", "setting": "rate 130, 20 DAA", "value": 0}, {"measurement": "damage to plant, KCHSC", "setting": "rate 130, 20 DAA", "value": 0}, {"measurement": "damage to plant, LOLPE", "setting": "rate 130, 20 DAA", "value": 0}, {"measurement": "damage to plant, POAAN", "setting": "rate 130, 20 DAA", "value": 10}, {"measurement": "damage to plant, POLCO", "setting": "rate 130, 20 DAA", "value": 0}, {"measurement": "damage to plant, SINAR", "setting": "rate 130, 20 DAA", "value": 0}, {"measurement": "damage to plant, STEME", "setting": "rate 130, 20 DAA", "value": 0}, {"measurement": "damage to plant, VERPE", "setting": "rate 130, 20 DAA", "value": 0}, {"measurement": "damage to plant, ALOMY", "setting": "rate 250, 20 DAA", "value": 0}, {"measurement": "damage to plant, AVEFA", "setting": "rate 250, 20 DAA", "value": 0}, {"measurement": "damage to plant, BEAVA", "setting": "rate 250, 20 DAA", "value": 0}, {"measurement": "damage to plant, BROTE", "setting": "rate 250, 20 DAA", "value": 0}, {"measurement": "damage to plant, BRSNN", "setting": "rate 250, 20 DAA", "value": 0}, {"measurement": "damage to plant, CHEAL", "setting": "rate 250, 20 DAA", "value": 10}, {"measurement": "damage to plant, GALAP", "setting": "rate 250, 20 DAA", "value": 10}, {"measurement": "damage to plant, HORVW", "setting": "rate 250, 20 DAA", "value": 10}, {"measurement": "damage to plant, KCHSC", "setting": "rate 250, 20 DAA", "value": 0}, {"measurement": "damage to plant, LOLPE", "setting": "rate 250, 20 DAA", "value": 20}, {"measurement": "damage to plant, POAAN", "setting": "rate 250, 20 DAA", "value": 20}, {"measurement": "damage to plant, POLCO", "setting": "rate 250, 20 DAA", "value": 0}, {"measurement": "damage to plant, SINAR", "setting": "rate 250, 20 DAA", "value": 0}, {"measurement": "damage to plant, STEME", "setting": "rate 250, 20 DAA", "value": 10}, {"measurement": "damage to plant, VERPE", "setting": "rate 250, 20 DAA", "value": 10}, {"measurement": "damage to plant, ALOMY", "setting": "rate 500, 20 DAA", "value": 40}, {"measurement": "damage to plant, AVEFA", "setting": "rate 500, 20 DAA", "value": 20}, {"measurement": "damage to plant, BEAVA", "setting": "rate 500, 20 DAA", "value": 0}, {"measurement": "damage to plant, BROTE", "setting": "rate 500, 20 DAA", "value": 0}, {"measurement": "damage to plant, BRSNN", "setting": "rate 500, 20 DAA", "value": 0}, {"measurement": "damage to plant, CHEAL", "setting": "rate 500, 20 DAA", "value": 20}, {"measurement": "damage to plant, GALAP", "setting": "rate 500, 20 DAA", "value": 20}, {"measurement": "damage to plant, HORVW", "setting": "rate 500, 20 DAA", "value": 20}, {"measurement": "damage to plant, KCHSC", "setting": "rate 500, 20 DAA", "value": 10}, {"measurement": "damage to plant, LOLPE", "setting": "rate 500, 20 DAA", "value": 30}, {"measurement": "damage to plant, POAAN", "setting": "rate 500, 20 DAA", "value": 70}, {"measurement": "damage to plant, POLCO", "setting": "rate 500, 20 DAA", "value": 0}, {"measurement": "damage to plant, SINAR", "setting": "rate 500, 20 DAA", "value": 10}, {"measurement": "damage to plant, STEME", "setting": "rate 500, 20 DAA", "value": 10}, {"measurement": "damage to plant, VERPE", "setting": "rate 500, 20 DAA", "value": 20}]}
